Consider 22 compounds from patent publication US12410160B2 (Gilead Sciences, Inc., priority 2021, dated 2025).

In assay [1] the test system is HepG2 cells. Kind of assay: F1P Cell-Based Assay (EC50), 13C6-fructose-1-phosphate in HepG2 cells (cell culture medium or 50% human plasma). As to the method:
F1P Cell-Based Assay (EC50)
Compounds were serially diluted (1:3) in DMSO. The LabCyte ECHO Acoustic dispenser system was used to pre-spot the assay plates (Greiner, Catalog #781091) with 400 nL (200-fold final dilution in 80 μL assay volume) of compound. 25,000 cells/well HepG2 cells (ATCC Catalog #HB-8065) were plated in a 40 μL volume/well in DMEM medium with 4.5 g/L glucose, 1× Penicillin-Streptomycin-Glutamine, and 10% FBS, using a BioTEK dispenser in a biological hood and incubated overnight at 37° C., 5% CO2, 90% humidity. 40 μL/well serum free assay medium (for F1P assay in cell culture medium), or 40 μL/well 100% human plasma (for F1P assay in 50% human plasma) were then added to the plates on the following day, and incubated for 1 hour at 37° C., 5% CO2, 90% humidity. ^13C6-labelled fructose (Sigma, Catalog #587621) in sterile PBS was added to the plates at a final concentration of 5 mM. The plates were incubated for 2 hours at 37° C., 5% CO2, 90% humidity. The assay was quenched by washing the cells with sterile PBS and adding 60 μL/well of 80% (v/v) methanol, 2 mM ammonium acetate and 2.5 μM Crotonyl-CoA, using a BioTEK washer-dispenser system. The plates were then sealed and stored in the −80° C. freezer until ready for RapidFire readout. ^13C6-fructose-1-phosphate in individual wells was quantified using the Agilent RapidFire High-Throughput MS system in negative mode using a […]. Mobile Phase 1 consisted of 20 mM ammonium acetate with 0.05% acetic acid in 100% methanol. Mobile phase 2 consisted of 5 mM octylamine in water (pH adjusted to 5 using acetic acid). F1P signals in individual wells were normalized by crotonyl CoA internal control.

Assay [2] concerns the target human KHK-C (Homo sapiens (Human), UniProt P50053). Kind of assay: KHK Biochemical Assay (IC50), ADP-Glo, KHK-C. The conditions noted are these: average of at least two separate assays. An outline of the steps:
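ADP-Glo luminescence measured ADP made over a 4 h room-temperature reaction of ATP plus fructose, started after 30 min compound–enzyme pre-incubation. Buffer: 50 mM Hepes pH 7.4, 140 mM KCl, 5 mM MgCl2, 0.01% Triton-X. Enzyme was His-tagged, BL21 (DE3)-expressed, Ni-NTA-purified; compounds in 1:3 DMSO dilution series.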
(In ADP-Glo the light output rises with the ADP produced.)

Where [3] appears, read: Homo sapiens, HepG2, HepG2 cells, 50% human plasma, read-out: F1P 50% HP EC50.
[4] abbreviates: Homo sapiens, HepG2, read-out: F1P 10% FBS EC50, HepG2 cells, cell culture medium (10% FBS).
Where [5] appears, read: HepG2 cells, 50% human plasma, read-out: F1P 50% HP EC50.
Where [6] appears, read: read-out: F1P 10% FBS EC50, HepG2 cells, cell culture medium (10% FBS).

Where two headings read alike, the source gives them in different places.

Sequence of human KHK-C (P50053 whole entry): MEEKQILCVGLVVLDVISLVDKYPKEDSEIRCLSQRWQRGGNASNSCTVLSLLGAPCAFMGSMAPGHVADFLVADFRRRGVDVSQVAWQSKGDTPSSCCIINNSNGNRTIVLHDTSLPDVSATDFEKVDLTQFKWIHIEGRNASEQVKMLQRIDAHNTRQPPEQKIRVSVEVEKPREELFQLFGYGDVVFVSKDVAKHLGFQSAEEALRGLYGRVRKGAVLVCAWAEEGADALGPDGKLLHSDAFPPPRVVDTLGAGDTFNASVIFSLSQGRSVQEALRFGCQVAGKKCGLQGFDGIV

On to `C[C@H]1CCN1c1nc2c(c(-c3cnc(C4(N)COC4)cn3)n1)CCC2` [Example 507, (S)-3-(5-(2-(2-methylazetidin-1-yl)-6,7-dihydro-5H-cyclopenta[d]pyrimidin-4-yl)pyrazin-2-yl)oxetan-3-amine], for which the half-maximal effective concentration (EC50) (commonly the concentration needed to bring the measured effect to its halfway point) was 247 nM in assay [1] (setting [3]) and 138 nM in assay [1] (setting [4]). The midpoint of inhibition in assay [2], the IC50, lay at 73.6 nM.
As to `C[C@H]1CCN1c1nc2c(c(-c3ccc(Cl)c(S(N)(=O)=O)c3)n1)CCC2` [Example 522, (S)-2-chloro-5-(2-(2-methylazetidin-1-yl)-6,7-dihydro-5H-cyclopenta[d]pyrimidin-4-yl)benzenesulfonamide], the figures for the half-maximal effective concentration (EC50) in assay [1] (setting [3]) and in assay [1] (setting [4]) were 454 nM and 53.3 nM, respectively. Inhibition in assay [2] was half-maximal at 44.5 nM (IC50).
For the compound `CC[C@@H]1CNC(=O)c2ccc(-c3nc(N4C[C@@H](O)[C@@H]4C)nc4c3CCC4(F)F)cc2O1` (single isomer, unassigned) [Example 593], the EC50 in assay [1] (setting [5]) was found to be 58.7 nM; in assay [1] (setting [6]) it was 22.8 nM. The IC50 (in general, the concentration needed to halve the response being measured) in assay [2] is 7.5 nM.
Consider `[2H]C1([2H])[C@@H](O)[C@H](C)N1c1nc(-c2ccc3c(c2)OC[C@@H]3NS(C)(=O)=O)c2c(n1)C(F)(F)CC2` [Example 480, N—((R)-6-(7,7-difluoro-2-((2S,3R)-3-hydroxy-2-methylazetidin-1-yl-4,4-d2)-6,7-dihydro-5H-cyclopenta[d]pyrimidin-4-yl)-2,3-dihydrobenzofuran-3-yl)methanesulfonamide], for which the EC50 came out at 23.7 nM in assay [1] (setting [3]) and 9.4 nM in assay [1] (setting [4]). The compound also yielded an IC50 in assay [2] of 0.6 nM.
Turning to `CC1(C)CC(NS(C)(=O)=O)c2ccc(-c3nc(N4CC[C@@H]4CF)nc4c3CCC4(F)F)cc21` (stereo partly drawn) [Example 629, N-(5-(7,7-difluoro-2-((R)-2-(fluoromethyl)azetidin-1-yl)-6,7-dihydro-5H-cyclopenta[d]pyrimidin-4-yl)-3,3-dimethyl-2,3-dihydro-1H-inden-1-yl)methanesulfonamide], the 50% effective concentration (EC50) in assay [1] (setting [3]) was greater than 500 nM; in assay [1] (setting [4]), 107 nM. 4.1 nM corresponded to half-maximal inhibition in assay [2] (IC50).
Regarding `C[C@H]1CCN1c1nc2c(c(-c3ccc4c(c3)S(=N)(=O)CCO4)n1)CCC2` (stereo partly drawn) [Example 726], the EC50 was found to be 306 nM in assay [1] (setting [3]) and 62.1 nM in assay [1] (setting [4]). In assay [2], it took 16.7 nM to reach half-maximal inhibition (IC50).
`C[C@H]1[C@H](O)CN1c1nc([C@H]2CC(NS(C)(=O)=O)c3ccccc3O2)c2c(n1)C(F)(F)CC2` (stereo partly drawn) [Example 786, N—((R)-(7,7-difluoro-2-((2S,3R)-3-hydroxy-2-methylazetidin-1-yl)-6,7-dihydro-5H-cyclopenta[d]pyrimidin-4-yl)chroman-4-yl)methanesulfonamide]: the results for the concentration giving a half-maximal response (EC50) in assay [1] (setting [5]) and in assay [1] (setting [6]) were 97.6 nM and 58 nM, respectively. Further, the half-inhibitory concentration (IC50) in assay [2] turned out to be 6.1 nM.
With `C[C@H]1[C@H](O)CN1c1nc(-c2ccc3c(c2)OC(C(F)F)CNC3=O)c2c(n1)C(F)(F)CC2` (stereo partly drawn) [Example 597, 8-(7,7-difluoro-2-((2S,3R)-3-hydroxy-2-methylazetidin-1-yl)-6,7-dihydro-5H-cyclopenta[d]pyrimidin-4-yl)-2-(difluoromethyl)-3,4-dihydrobenzo[f][1,4]oxazepin-5(2H)-one], the EC50 came out at 34.4 nM in assay [1] (setting [3]) and 16 nM in assay [1] (setting [4]).
The corresponding values for `N#C[C@H]1CCN1c1nc(-c2ccc([C@@H](N)C(F)F)cc2)c2c(n1)C(F)(F)CC2` [Example 660, (2R)-1-[4-[4-[(1R)-1-amino-2,2-difluoro-ethyl]phenyl]-7,7-difluoro-5,6-dihydrocyclopenta[d]pyrimidin-2-yl]azetidine-2-carbonitrile] are 26.7 nM and 19.8 nM.
For `CCS(=O)(=O)N[C@H]1COc2cc(-c3nc(N4C[C@@H](O)[C@@H]4C)nc4c3CCC4(F)F)ccc21` [Example 624, N—((R)-6-(7,7-difluoro-2-((2S,3R)-3-hydroxy-2-methylazetidin-1-yl)-6,7-dihydro-5H-cyclopenta[d]pyrimidin-4-yl)-2,3-dihydrobenzofuran-3-yl)ethanesulfonamide] the same measures were 282 nM and 129 nM.
Take `C[C@H]1CCN1c1nc(-c2cn(C3CNC3)nn2)c2c(n1)C(F)(F)CC2` [Example 653, 4-[1-(azetidin-3-yl)triazol-4-yl]-7,7-difluoro-2-[(2S)-2-methylazetidin-1-yl]-5,6-dihydrocyclopenta[d]pyrimidine]: the EC50 in assay [1] (setting [3]) was 10.3 nM; in assay [1] (setting [4]) it was 11 nM.
With `C[C@H]1[C@H](O)CN1c1nc(-c2ccc(OC(F)F)c(S(C)(=N)=O)c2)c2c(n1)C(F)(F)CC2` (stereo partly drawn) [Example 532], the EC50 worked out at 55.1 nM in assay [1] (setting [3]) and 5.1 nM in assay [1] (setting [4]).
The corresponding values for `COC(=O)N[C@@H]1COc2cc(-c3nc(N4C[C@@H](O)[C@@H]4C)nc4c3CCC4(F)F)ccc21` [Example 815, Methyl N-[(3S)-6-[7,7-difluoro-2-[(2S,3R)-3-hydroxy-2-methyl-azetidin-1-yl]-5,6-dihydrocyclopenta[d]pyrimidin-4-yl]-2,3-dihydrobenzofuran-3-yl]carbamate] are 138 nM and 64.3 nM.
The corresponding values for `C[C@H]1[C@H](O)CN1c1nc(-c2ccc3c(c2)S(=O)(=O)CC3NS(C)(=O)=O)c2c(n1)C(F)(F)CC2` (stereo partly drawn) [Example 665, N-[6-[7,7-difluoro-2-[(2S,3R)-3-hydroxy-2-methyl-azetidin-1-yl]-5,6-dihydrocyclopenta[d]pyrimidin-4-yl]-1,1-dioxo-2,3-dihydrobenzothiophen-3-yl]methanesulfonamide] are 88.4 nM and 52.7 nM.
Take `COC(=O)N[C@H]1COc2cc(-c3nc(N4C[C@@H](O)[C@@H]4C)nc4c3CCC4(F)F)ccc21` [Example 814, Methyl N-[(3R)-6-[7,7-difluoro-2-[(2S,3R)-3-hydroxy-2-methyl-azetidin-1-yl]-5,6-dihydrocyclopenta[d]pyrimidin-4-yl]-2,3-dihydrobenzofuran-3-yl]carbamate]: the results for the 50% effective concentration (EC50) in assay [1] (setting [3]) and in assay [1] (setting [4]) were 155 nM and 91.6 nM, respectively.
On to `C[C@H]1[C@H](O)CN1c1nc(-c2ccc3c(c2)C(NS(C)(=O)=O)CO3)c2c(n1)C(F)(F)CC2` (stereo partly drawn) [Example 613], for which the concentration for a half-maximal effect (EC50) in assay [1] (setting [3]) was 26 nM; in assay [1] (setting [4]) it was 14.5 nM.
The corresponding values for `C[C@H]1CCN1c1nc(-c2cccc(-n3ccnn3)c2)c2c(n1)C(F)(F)CC2` [Example 654, 7,7-difluoro-2-[(2S)-2-methylazetidin-1-yl]-4-[3-(triazol-1-yl)phenyl]-5,6-dihydrocyclopenta[d]pyrimidine] are 214 nM and 129 nM.
For `C[C@H]1[C@H](O)CN1c1nc(-c2cccc(N=S3(=O)CCOCC3)c2)c2c(n1)C(F)(F)CC2` [Example 673, (2S,3R)-1-[7,7-difluoro-4-[3-[(4-oxo-1,4-oxathian-4-ylidene)amino]phenyl]-5,6-dihydrocyclopenta[d]pyrimidin-2-yl]-2-methyl-azetidin-3-ol] the same measures were 75.8 nM and 20.3 nM.
For `C[C@H]1[C@H](O)CN1c1nc(-c2ccc3c(c2)S(C)(=O)=NC3)c2c(n1)C(F)(F)CC2` (stereo partly drawn) [Example 805, (2S,3R)-1-[7,7-difluoro-4-(1-methyl-1-oxo-3H-1,2-benzothiazol-6-yl)-5,6-dihydrocyclopenta[d]pyrimidin-2-yl]-2-methyl-azetidin-3-ol] the same measures were 74.1 nM and 67.9 nM.
For the compound `C[C@H]1CCN1c1nc(-c2ccc(-n3ccnn3)cc2)c2c(n1)C(F)(F)CC2` [Example 655, 7,7-difluoro-2-[(2S)-2-methylazetidin-1-yl]-4-[4-(triazol-1-yl)phenyl]-5,6-dihydrocyclopenta[d]pyrimidine], the EC50 was found to be 236 nM in assay [1] (setting [3]) and 46.2 nM in assay [1] (setting [4]).
As for `C[C@H]1[C@H](O)CN1c1nc(-c2ccc3c(c2)CCS3(=N)=O)c2c(n1)C(F)(F)CC2` (stereo partly drawn) [Example 664, (2S,3R)-1-[7,7-difluoro-4-(1-imino-1-oxo-2,3-dihydrobenzothiophen-5-yl)-5,6-dihydrocyclopenta[d]pyrimidin-2-yl]-2-methyl-azetidin-3-ol], the concentration for a half-maximal effect (EC50) is 80.2 nM in assay [1] (Homo sapiens, HepG2, read-out: F1P 10% FBS EC50) and 78.6 nM in assay [1] (Homo sapiens, HepG2, read-out: F1P 50% HP EC50).
With `C[C@H]1[C@H](O)CN1c1nc(-c2cccc(-n3cnnc3)c2)c2c(n1)C(F)(F)CC2` [Example 619, (2S,3R)-1-(4-(3-(4H-1,2,4-triazol-4-yl)phenyl)-7,7-difluoro-6,7-dihydro-5H-cyclopenta[d]pyrimidin-2-yl)-2-methylazetidin-3-ol], the EC50 in assay [1] (setting [3]) is greater than 500 nM; in assay [1] (setting [4]) it was 77.3 nM.
